Laboratory results as given in ChEMBL document CHEMBL4387774, “Design, synthesis, and evaluation of a water soluble C5-monoketone type curcumin analogue as a potent amyloid β aggregation inhibitor” (Bioorg Med Chem Lett, 2019).
≈ marks a conversion by molar mass, not a printed value. Calls of active or inactive are those of the source. No cut-off for these calls is given here.

What was measured:
[1] = Aqueous solubility of the compound at 1 mg measured after 12 hrs by shake flask method; assay type: physicochemical; settings: water
[2] = target: Amyloid-beta precursor protein (Homo sapiens) (UniProt P05067); experiment: Inhibition of self-induced amyloid beta 42 (unknown origin) aggregation at 1 uM incubated for 20 hrs by thioflavin-T fluorescence assay relative to control
[3] = Cytotoxicity against rat PC12 cells measured after 24 hrs by WST8/PMS assay; assay type: cell-based, PC-12
[4] = Antioxidant activity assessed as DPPH radical scavenging activity measured after 30 mins; assay type: functional
[5] = target: Amyloid-beta precursor protein (Homo sapiens) (UniProt P05067); experiment: Inhibition of self-induced amyloid beta 42 (unknown origin) fibril formation at 10 uM incubated for 6 hrs by thioflavin-T fluorescence assay relative to control
[6] = target: Amyloid-beta precursor protein (Homo sapiens) (UniProt P05067); experiment: Inhibition of self-induced amyloid beta 42 (unknown origin) aggregation at 10 uM incubated for 20 hrs by thioflavin-T fluorescence assay relative to control
[7] = target: Amyloid-beta precursor protein (Homo sapiens) (UniProt P05067); experiment: Disaggregation of self-induced amyloid beta 42 (unknown origin) preformed fibrils assessed as length of nanorod-like fragment by TEM analysis
[8] = target: Amyloid-beta precursor protein (Homo sapiens) (UniProt P05067); experiment: Disaggregation of self-induced amyloid beta 42 (unknown origin) preformed fibrils assessed as appearance of nanorod-like fragment by […] analysis

Amyloid-beta precursor protein (Homo sapiens), sequence (P05067 whole entry, the tested form may be a part): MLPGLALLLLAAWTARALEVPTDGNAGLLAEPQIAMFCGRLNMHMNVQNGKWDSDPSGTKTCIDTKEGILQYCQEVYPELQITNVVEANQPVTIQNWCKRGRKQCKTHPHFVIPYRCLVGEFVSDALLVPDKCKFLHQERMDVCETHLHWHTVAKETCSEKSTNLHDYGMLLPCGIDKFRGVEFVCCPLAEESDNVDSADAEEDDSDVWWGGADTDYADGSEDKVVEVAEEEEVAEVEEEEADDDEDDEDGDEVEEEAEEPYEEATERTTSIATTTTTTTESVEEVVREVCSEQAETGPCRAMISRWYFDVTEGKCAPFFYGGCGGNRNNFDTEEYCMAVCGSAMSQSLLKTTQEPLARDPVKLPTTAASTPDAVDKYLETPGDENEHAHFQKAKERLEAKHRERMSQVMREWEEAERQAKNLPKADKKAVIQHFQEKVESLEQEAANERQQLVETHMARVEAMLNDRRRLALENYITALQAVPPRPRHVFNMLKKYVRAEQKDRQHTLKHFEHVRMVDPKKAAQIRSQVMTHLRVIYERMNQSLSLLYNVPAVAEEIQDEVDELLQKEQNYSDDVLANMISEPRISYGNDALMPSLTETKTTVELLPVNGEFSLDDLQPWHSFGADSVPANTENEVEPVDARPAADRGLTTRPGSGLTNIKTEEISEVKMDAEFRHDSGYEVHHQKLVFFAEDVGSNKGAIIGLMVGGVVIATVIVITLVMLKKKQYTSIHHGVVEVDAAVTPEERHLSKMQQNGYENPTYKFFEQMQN

SMILES | solubility thermodynamic at 12 h [1] [µM] | inhibition [2] [%] | CC50 at 24 h [3] [µM] | IC50 [4] [µM] | inhibition [5] [%] | inhibition [6] [%] | Activity [7] [nm] | Activity [8]
O=C(/C=C/c1ccc(O)cc1)/C=C/c1ccc(O)c(O)c1 | 19 (≈ 5.36 µg/mL) | 75 | 12 | 24 | – | – | – | –
O=C(/C=C/c1ccc(O)c(O)c1)/C=C/c1cc(O)ccc1O | 123 (≈ 36.7 µg/mL) | 100 | 39 | 25 | – | – | – | –
O=C(/C=C/c1cc(O)ccc1O)CC(=O)c1ccc(O)c(O)c1 | 47 (≈ 14.8 µg/mL) | 98 | > 100 | 82 | – | – | – | –
O=C(/C=C/c1cc(O)ccc1O)CC(=O)/C=C/c1cc(O)ccc1O | 5 (≈ 1.7 µg/mL) | 99 | 24 | 57 | 95 to 100 | – | – | –
O=C(/C=C/c1ccc(O)c(O)c1)CC(=O)/C=C/c1cccc(O)c1O | 3.8 (≈ 1.29 µg/mL) | – | 16 | 19 | 95 to 100 | 98 | – | –
O=C(/C=C/c1ccc(O)c(O)c1)c1cc(O)ccc1O | 16 (≈ 4.36 µg/mL) | 85 | 80 | 39 | – | – | – | –
O=C(/C=C/c1ccc(O)cc1)/C=C/c1cccc(O)c1O | 120 (≈ 33.9 µg/mL) | 96 | 12 | 40 | – | – | – | –
O=C(/C=C/c1cc(O)ccc1O)CC(=O)c1cccc(O)c1O | 32 (≈ 10.1 µg/mL) | 100 | 63 | 28 | – | – | – | –
O=C(/C=C/c1cccc(O)c1)CC(=O)/C=C/c1cccc(O)c1O | 8.2 (≈ 2.66 µg/mL) | – | 38 | 29 | 95 to 100 | 100 | – | –
O=C(/C=C/c1ccccc1O)/C=C/c1cccc(O)c1O | 151 (≈ 42.6 µg/mL) | 98 | 54 | 99 | – | – | – | –
O=C(/C=C/c1cc(O)ccc1O)/C=C/c1cccc(O)c1O | 271 (≈ 80.8 µg/mL) | 100 | 59 | 13 | – | – | 50 to 500 | Active
O=C(/C=C/c1cccc(O)c1)CC(=O)/C=C/c1cc(O)ccc1O | 5.8 (≈ 1.88 µg/mL) | 56 | 15 | 88 | 95 to 100 | – | – | –
O=C(/C=C/c1cccc(O)c1O)CC(=O)/C=C/c1cccc(O)c1O | 5.3 (≈ 1.8 µg/mL) | 93 | 39 | 30 | 95 to 100 | – | – | –
O=C(/C=C/c1cccc(O)c1O)c1cc(O)ccc1O | 33 (≈ 8.98 µg/mL) | 98 | 89 | 48 | – | – | – | –
O=C(/C=C/c1cc(O)ccc1O)CC(=O)/C=C/c1cccc(O)c1O | 100 (≈ 34 µg/mL) | 100 | 53 | 27 | 95 to 100 | – | – | –
O=C(/C=C/c1cccc(O)c1)/C=C/c1cccc(O)c1O | 184 (≈ 51.9 µg/mL) | 90 | 46 | 48 | – | – | – | –
O=C(/C=C/c1ccc(O)cc1)CC(=O)/C=C/c1cc(O)ccc1O | 0.57 (≈ 0.185 µg/mL) | 53 | 21 | 41 | 95 to 100 | – | – | –
O=C(/C=C/c1ccccc1O)CC(=O)/C=C/c1cccc(O)c1O | 11 (≈ 3.57 µg/mL) | 92 | 34 | 23 | 95 to 100 | – | – | –
O=C(/C=C/c1ccc(O)c(O)c1)/C=C/c1ccccc1O | 111 (≈ 31.3 µg/mL) | 100 | 34 | 62 | – | – | – | –
O=C(/C=C(O)/C=C/c1ccccc1O)/C=C/c1ccc(O)c(O)c1 | 31 (≈ 10.1 µg/mL) | 62 | – | – | – | – | – | –
O=C(/C=C/c1ccc(O)c(O)c1)CC(=O)/C=C/c1cc(O)ccc1O | 54 (≈ 18.4 µg/mL) | 57 | 51 | 60 | 95 to 100 | – | – | –
O=C(/C=C/c1cccc(O)c1)/C=C/c1ccc(O)c(O)c1 | 60 (≈ 16.9 µg/mL) | 100 | > 100 | 71 | – | – | – | –
O=C(/C=C/c1ccc(O)cc1)CC(=O)/C=C/c1cccc(O)c1O | 4.8 (≈ 1.56 µg/mL) | – | 8.5 | 27 | 95 to 100 | 100 | – | –
COc1cc(/C=C/C(=O)CC(=O)/C=C/c2ccc(O)c(OC)c2)ccc1O [CURCUMIN] | 0.19 (≈ 0.07 µg/mL) | – | 42 | 45 | – | – | – | –
O=C(/C=C/c1ccccc1O)CC(=O)c1ccc(O)c(O)c1 | 77 (≈ 23 µg/mL) | 90 | > 90 | 16 | – | – | – | –
O=C(/C=C/c1cccc(O)c1)CC(=O)c1ccc(O)c(O)c1 | 25 (≈ 7.46 µg/mL) | 85 | > 100 | 10 | – | – | – | –
O=C(/C=C/c1ccccc1O)CC(=O)/C=C/c1cc(O)ccc1O | 4.4 (≈ 1.43 µg/mL) | 80 | 38 | 48 | 95 to 100 | – | – | –
